Data reported in US20220152065A1, “METHOD OF BLOCKING OR AMELIORATING CYTOKINE RELEASE SYNDROME” (Rigel Pharmaceuticals, Inc., priority 2019, published 2022).

Columns and labels:
[1] = target: Fc receptor signaling (degranulation); conditions: IgE- and IgG-mediated Fc receptor activation; cited from earlier work
[2] = test system: Dendritic cells + T cells + CD3/CD28 beads (IL-2 production); assay: CRS assay: IL2 ELISA of supernatant from dendritic cells + T cells + CD3/CD28 beads; assay type: cell-based; conditions: human PBMC-derived dendritic cells, 1 h compound pre-incubation, T cells with CD3/CD28 beads overnight; IL-2 in supernatant
Source text: • 1. Human PBMC cells (PPA Research Group, Cat No. 15-00021) • 2. RPMI media 10% FBS • 3. GMCSF (Peprotech, Cat No. 300-03) and IL4 (Peprotech Cat No. 200-04) • 4. White clear bottom 96 well plates (Fisher, Cat No. 07-200-587, Corning #3903) • 5. Human IL-2 DuoSet ELISA (R&D Systems, Cat No. DY202) • 6. Human IL-6 DuoSet ELISA (R&D Systems, Cat No. DY206) • 7. Cell Titer Glo reagent (Promega, Cat No. G7573) • 8. Dynabeads Human T-Activator CD3/CD28 (Fisher, Cat No. 111.61D) • 9. Anti-human CD3 (BD Biosciences, Cat No. 555336) • 10. CD28, Clone CD28.2 (Beckman Coulter Inc. Cat No. IM1376) • 11. Recombinant Human IL-2 Protein (R&D Systems, Cat No. 202-IL-500)
Transfer human PBMC cells (400 million) obtained from the vendor into three T-175 flasks containing 16 ml RPMI media (10% FBS) and incubate for 2 h at 37° C. After 2 h, remove floating PBL and rinse cell twice with 10 ml of media. Save PBL and media for T cell expansion. Add 16 ml of fresh RPMI media (10% FBS) containing GMCSF (100 ng/ml) and IL4 (20 ng/ml) and keep the flask in 37° C. incubator. After 3 days, add fresh GMCSF (100 ng/ml) and IL4 (20 ng/ml) to the flask and continue the incubation.
• 1. […]
• 1. […] To the remaining 40 μl/well of the cell culture plate add 25 μl of Cell Titer Glo reagent, incubate for 1-2 minutes on a shaker and read the plate for luminescence intensity to determine the compound cytotoxicity. […]

[3] = test system: Dendritic cells + T cells + CD3/CD28 beads (IL-6 production); assay: CRS assay: IL6 ELISA of supernatant from dendritic cells + T cells + CD3/CD28 beads; assay type: cell-based; conditions: human PBMC-derived dendritic cells, 1 h compound pre-incubation, T cells with CD3/CD28 beads overnight; IL-6 in supernatant
Method: Transfer human PBMC cells (400 million) obtained from the vendor into three T-175 flasks containing 16 ml RPMI media (10% FBS) and incubate for 2 h at 37° C. After 2 h, remove floating PBL and rinse cell twice with 10 ml of media. Save PBL and media for T cell expansion. Add 16 ml of fresh RPMI media (10% FBS) containing GMCSF (100 ng/ml) and IL4 (20 ng/ml) and keep the flask in 37° C. incubator. […]
After 4 days, harvest the dendritic cells by spinning down (1000 rpm/10 min) and aspirate the media. […] To the remaining 40 μl/well of the cell culture plate add 25 μl of Cell Titer Glo reagent, incubate for 1-2 minutes on a shaker and read the plate for luminescence intensity to determine the compound cytotoxicity. […]

## COc1cc(Nc2ncc(F)c(Nc3ccc4c(n3)NC(=O)C(C)(C)O4)n2)cc(OC)c1OC [Compound R406, 6-((5-fluoro-2-((3,4,5-trimethoxyphenyl)amino)pyrimidin-4-yl)amino)-2,2-dimethyl-2H-pyrido[3,2-b][1,4]oxazin-3(4H)-one]
[1]
  EC50: 56 to 64 nM
[2]
  IC50: 3.14 µM
[3]
  IC50: 0.119 µM
